US20050014675A1, “Cell migration inhibitor” (priority 2001, published 2005)
Where a name gives a salt, the structure may show the parent alone. Non-standard residues stand in square brackets, D forms with d. Residues, ends and D or L forms follow the SMILES beside them. No end group written: not given here. dTrp(2-Me) = Cc1[nH]c2ccccc2c1C[C@@H](N)C(=O)O; d2Nal = N[C@H](Cc1ccc2ccccc2c1)C(=O)O

Key:
Format in all cases: cell-based
[1] = test system: human vascular smooth muscle cells; test: PDGF-induced migration of human vascular smooth muscle cells (Boyden's chamber); conditions: for action on the PDGF-induced migration of vascular smooth muscle cells (summary of Test 1): Test 1, summary statement; for suppressive action on PDGF-induced migration / action on PDGF-induced migration: human vascular smooth muscle cells, FIG. 4; for suppressive action on PDGF-induced migration: compound at 10 nM
Description: (§1) Human vascular smooth muscle cells were cultured in SmBM with the additive factors in a culture incubator (37° C., 5% CO2/95% air) and cells at the 5th-9th passage were used in the test. Rabbit vascular smooth muscle cells were obtained by an explant technique from the media of rabbit thoracic aorta and cultured in DMEM with 10% fetal bovine serum; cells at the 5th-7th passage were used in the test.
(§2) Cells that proliferated to confluence were detached with trypsin, washed twice with an additive factor free medium, dispersed in SmBM containing 0.1% fetal bovine serum and prepared to a cell density of 5×10^5 cells/mL. Migration of cells was assayed according to Koyama et al. method (J. Biol. Chem. (1993) 268:13301-13308) using a 48-well Boyden's chamber (Neuro probe). To be more specific, 28 μL of SmBM containing 10 ng/mL of PDGF and 0.1% FBS was placed in the lower chamber and 50 μL of a cell dispersion preliminarily incubated with each assay compound for 10 minutes was placed in the upper chamber. The upper chamber and the lower chamber were separated by a polycarbonate filter (having pores 8 μm in diameter) precoated with type I collagen (Nitta Gelatin Inc.) Since the placement of the cell dispersion, the Boyden's chamber was incubated in a culture incubator (37° C., 5% CO2/95% air) for 4 hours. The cells on the upper side of the filter were scraped off and the cells that had migrated to the lower side of the filter were fixed in methanol and stained with Diff-Quick staining solution (International Reagents Corporation). The filter had been air-dried on a glass slide and sealed with Enteran New. The cells were counted under a high-power microscope (×200) in 4 fields per well and the number of cells that had migrated was averaged to determine the migration activity.
The result of each treated group was represented by the mean±standard deviation for 3 wells. Statistical significance was estimated by one-way ANOVA, if p value was less than 5%, followed by Dunnett method to compare between vehicle-treated group and the others in the presence of a migration inducer. Values of p less than 5% were considered to be significant.

[2] = test system: rabbit vascular smooth muscle cells; test: PDGF-induced migration of rabbit vascular smooth muscle cells (Boyden's chamber); conditions: treatment with 10 nM, FIG. 3
Description: as §1
Cells that proliferated to confluence were detached with trypsin, washed twice with an additive factor free medium, dispersed in SmBM containing 0.1% fetal bovine serum and prepared to a cell density of 5×10^5 cells/mL. Migration of cells was assayed according to Koyama et al. method (J. Biol. Chem. (1993) 268:13301-13308) using a 48-well Boyden's chamber (Neuro probe). To be more specific, 28 μL of SmBM containing 10 ng/mL of PDGF and 0.1% FBS was placed in the lower chamber and 50 μL of a cell dispersion preliminarily incubated with each assay compound for 10 minutes was placed in the upper chamber. […] The cells were counted under a high-power microscope (×200) in 4 fields per well and the number of cells that had migrated was averaged to determine the migration activity. […]

Human mesangial cells = test: PDGF-induced migration of human mesangial cells (Boyden's chamber)
Description: as §2, with “activity. […]” for “activity.”

Compound: CC(C)(N)C(=O)N[C@H](COCc1ccccc1)C(=O)N1CCC2(CC1)CN(S(C)(=O)=O)c1ccccc12 [MK-0677, ibutamorelin methanesulfonate]
- action on the PDGF-induced migration of vascular smooth muscle cells (summary of Test 1) [1]: potent inhibitory action
- suppressive action on PDGF-induced migration [1]: significant suppressive action

Compound: GHRH: human-type growth-hormone releasing hormone (Peptide Institute, Inc.) (YADAIFTNSYRKVLGQLSARKLLQDIMSRQQGESNQERGARARL; ends and bridges not checked; UniProt P01286 32-75, looked up)
- action on the PDGF-induced migration of vascular smooth muscle cells (summary of Test 1) [1]: no action
- action on PDGF-induced migration ([1]; at 10 nM): no action

Compound: CN1N=C2CCN(C(=O)[C@@H](COCc3ccccc3)NC(=O)C(C)(C)N)C[C@@]2(Cc2ccccc2)C1=O [CP-424,391, capromorelin]
- action on the PDGF-induced migration of vascular smooth muscle cells (summary of Test 1) [1]: potent inhibitory action
- suppressive action on PDGF-induced migration [1]: significant suppressive action

Compound: Cc1[nH]c2ccccc2c1C[C@@H](NC(=O)[C@@H](N)Cc1cnc[nH]1)C(=O)N[C@@H](C)C(=O)N[C@@H](Cc1c[nH]c2ccccc12)C(=O)N[C@H](Cc1ccccc1)C(=O)N[C@@H](CCCCN)C(N)=O [hexarelin] (H-H[dTrp(2-Me)]AW[dF]K-NH2)
- action on the PDGF-induced migration of vascular smooth muscle cells (summary of Test 1) [1]: potent inhibitory action
- suppressive action on PDGF-induced migration [1]: significant suppressive action

Compound: CNC(=O)[C@@H](Cc1ccccc1)N(C)C(=O)[C@@H](Cc1ccc2ccccc2c1)N(C)C(=O)/C=C/CC(C)(C)N [NN-703, tabimorelin]
- action on the PDGF-induced migration of vascular smooth muscle cells (summary of Test 1) [1]: potent inhibitory action
- suppressive action on PDGF-induced migration [1]: significant suppressive action

Compound: GH: recombinant human growth hormone (Wako Pure Chemical Industries, Ltd.)
- action on the PDGF-induced migration of vascular smooth muscle cells (summary of Test 1) [1]: no action
- action on PDGF-induced migration ([1]; at 0.1 μg/mL): no action

Compound: GHRP-6
- action on the PDGF-induced migration of vascular smooth muscle cells (summary of Test 1) [1]: potent inhibitory action
- suppressive action on PDGF-induced migration [1]: significant suppressive action

Compound: C[C@H](NC(=O)[C@@H](Cc1ccc2ccccc2c1)NC(=O)[C@@H](C)N)C(=O)N[C@@H](Cc1c[nH]c2ccccc12)C(=O)N[C@H](Cc1ccccc1)C(=O)N[C@@H](CCCCN)C(N)=O [KP-102, Pralmorelin dihydrochloride] (H-[dA][d2Nal]AW[dF]K-NH2)
- suppressive action on PDGF-induced migration [2]: significant suppressive action
- concentration with significant suppression of PDGF-induced migration (Human mesangial cells; FIG. 8): ≥ 0.1 nM
- action on the PDGF-induced migration of vascular smooth muscle cells (summary of Test 1) [1]: potent inhibitory action

Compound: ghrelin
- suppressive action on PDGF-induced migration [2]: significant suppressive action
- suppression of PDGF-induced migration (Human mesangial cells; FIG. 9): This action was also verified
- action on the PDGF-induced migration of vascular smooth muscle cells (summary of Test 1) [1]: potent inhibitory action
